Experimental data taken from patent EP4763837A1, “PHOTOCHROMIC COMPOUND, CURABLE COMPOSITION, OPTICAL ARTICLE, LENS, AND EYEGLASSES” (TOKUYAMA CORPORATION, priority 2023, dated 2025).
Several values for one entry are separate records, joined by “and”; a condition that tells them apart may be missing. Equal values may be shown once.

How the values were obtained:
Format in all cases: physicochemical
[1] = Photochromic property of photochromic laminate made by coating method; conditions: for Residual ratio / Color developing density at 23°C: laminate by coating method; for Residual ratio: A96/A0 x 100 after 96 hours accelerated degradation, xenon weather meter X25; for Color developing density at 23°C: absorbance difference after 240 seconds irradiation at the maximum absorption wavelength of the same line
Description: First, the photochromic compound obtained in Example 1, a photoinitiator, and a polymerizable compound were mixed to obtain a curable composition.
The polymerizable compound was a combination of the following radical polymerizable monomers:
Polyethylene glycol dimethacrylate (average molecular weight: 736): 42 parts by mass • Polyethylene glycol dimethacrylate (average molecular weight: 536): 12 parts by mass • Trimethylolpropane methacrylate: 38 parts by mass γ-Methacryloyloxypropyltrimethoxysilane: 2 parts by mass Glycidyl methacrylate: 1 part by mass.
Note that, in the curable composition, the photochromic compound was added in an amount of 0.25 mmol taking a total amount of the radical polymerizable monomers as 100 g.
Phenylbis(2,4,6-trimethylbenzoyl)phosphine oxide (photoinitiator: Omnirad 819): 0.3 parts by mass Ethylene bis(oxyethylene) bis[3-(5-tert-butyl-4-hydroxy-m-tolyl) propionate] (stabilizer, Irganox 245): 1 part by mass Bis(1,2,2,6,6-pentamethyl-4-piperidyl)sebacate: 3 parts by mass Leveling agent (L-7001) manufactured by DuPont Toray Specialty Materials K.K.: 0.1 parts by mass.
Using this curable composition, a photochromic laminate was obtained by a lamination method including polymerization as follows.
First, a thiourethane plastic lens with a center thickness of 2 mm and a refractive index of 1.60 was prepared as an optical substrate. Note that, the thiourethane plastic lens had been alkaline-etched in a 10% sodium hydroxide aqueous solution at 50°C for 5 minutes in advance, and then thoroughly washed with distilled water.
A spin coater (1H-DX2, manufactured by MIKASA CO., LTD) was used to coat a surface of the above-mentioned plastic lens with a moisture-curing primer (product name: TR-SC-P, manufactured by Tokuyama Corporation) at a rotation speed of 70 rpm for 15 seconds, followed by 1000 rpm for 10 seconds. Then, about 2 g of the photochromic curable composition obtained above was spin-coated at a rotation speed of 60 rpm for 40 seconds, followed by 600 rpm for 10 to 20 seconds so as to achieve a photochromic coating layer with a thickness of 40 µm.
The lens of which surface had been coated with the photochromic curable composition (photochromic coating layer) was irradiated with light for 90 seconds in a nitrogen gas atmosphere using a metal halide lamp with an output of 200 mW/cm^2 to cure the coating. The resultant was then further heated at 110°C for 1 hour to produce a photochromic laminate with a photochromic layer.
Photochromic laminates were produced using the photochromic compounds obtained in Examples 2 to 20 in the same manner as in Example 21.
Photochromic laminates were obtained using photochromic compounds represented by Formulae (A) to (D) below in the same manner as in Example 21. [drawing 89] [drawing 90] [drawing 91] [drawing 92] [drawing 93]
The resulting photochromic laminates were evaluated by the below-mentioned methods. • (1) Photochromic property • [1] Maximum absorption wavelength (λmax): This is the maximum absorption wavelength after color development determined by a spectrophotometer manufactured by Otsuka Electronics Co., Ltd. (instantaneous multichannel photo detector MCPD3000) and was used as an index of a color tone upon color development. • [2] Color developing density at 23°C (A23): This is a difference between an absorbance {ε(240)} after irradiation with light at 23°C for 240 seconds and an absorbance ε(0) when not irradiated with light at the maximum absorption wavelength and was used as an index of a color developing density. The higher this value is, the better a photochromic property is. • [3] Color fading half-life at 23°C [τ1/2 (sec).)]: This is a period of time taken by an absorbance at the maximum absorption wavelength of a sample to decrease to 1/2 of {ε(240)-ε(0)} when irradiation is stopped after irradiation with light at 23°C for 240 seconds, and was used as an index of a color fading rate. The shorter this period of time is, the faster the color fading rate is. • [4] […]

[2] = Solubility of photochromic compound in polymerizable compounds; design: key: 1: No haze is seen when checked under transmission of light, and the sample is completely dissolved.; 2: A very thin haze is seen to the extent that it can be seen under transmission of light.; 3: A thin haze that can be seen under transmission of light is seen.; 4: A haze can be seen even without transmission of light; conditions: 35 µmol/g in radical polymerizable compound composition of Example 21, 65 to 70°C; for Dissolution for 15 min / Dissolution for 30 min / Dissolution for 45 min: stirring and ultrasonic irradiation; for Dissolution for 1 hour: head reads 60 min in Tables 8 to 14
Procedure: The photochromic compounds according to Examples and Comparative examples shown in Table 5 were evaluated for solubility in polymerizable compounds.
Specifically, a sample was prepared by adding each of the photochromic compounds to the composition, which consisted of a radical polymerizable compound, among the curable compositions used in Example 21.
Note that, this test was performed using "YOKAI-KUN USS-1" manufactured by NIHONSEIKI KAISHA LTD. under the following conditions: • Dissolution temperature: 65 to 70°C • Stirring condition: Stirring dial of 5. Ultrasonic irradiation condition: Irradiation interval of 3 sec.
Dissolution was checked every 15 minutes up to 1 hour later, the sample was visually checked by transmitting light through the sample, and a degree of dissolution was evaluated according to the following four evaluation criteria.
• 1: No haze is seen when checked under transmission of light, and the sample is completely dissolved. • 2: A very thin haze is seen to the extent that it can be seen under transmission of light. • 3: A thin haze that can be seen under transmission of light is seen. • 4: A haze can be seen even without transmission of light.
A shorter time required for the evaluation result to be 1 means higher solubility.

[3] = Photochromic property of photochromic cured product made by kneading method
Procedure: The resulting photochromic laminates were evaluated by the below-mentioned methods. • (1) Photochromic property • [1] Maximum absorption wavelength (λmax): This is the maximum absorption wavelength after color development determined by a spectrophotometer manufactured by Otsuka Electronics Co., Ltd. (instantaneous multichannel photo detector MCPD3000) and was used as an index of a color tone upon color development. • [2] Color developing density at 23°C (A23): This is a difference between an absorbance {ε(240)} after irradiation with light at 23°C for 240 seconds and an absorbance ε(0) when not irradiated with light at the maximum absorption wavelength and was used as an index of a color developing density. The higher this value is, the better a photochromic property is. • [3] Color fading half-life at 23°C [τ1/2 (sec).)]: This is a period of time taken by an absorbance at the maximum absorption wavelength of a sample to decrease to 1/2 of {ε(240)-ε(0)} when irradiation is stopped after irradiation with light at 23°C for 240 seconds, and was used as an index of a color fading rate. The shorter this period of time is, the faster the color fading rate is. • [4] Residual ratio (A96/A0 x 100): The resulting photochromic plastic lens was subjected to accelerated degradation for 96 hours using a xenon weather meter X25 manufactured by Suga Test Instruments Co., Ltd. Color developing densities were then evaluated before and after a test, and a color developing density before the test (A0) and a color developing density after the test (A96) were measured. A ratio (A96/A0) was determined as a residual ratio and was used as an index of color development durability. The higher the residual ratio is, the more durable the color development is.
First, the photochromic compound obtained in Example 1, an additive, and a polymerizable compound were mixed to obtain a curable composition. The polymerizable compound was a combination of the following polymerizable monomers: • · 1,3-Bis(isocyanatomethyl)cyclohexane: 36.7 parts by mass • · Pentaerythritol tetrakis(3-mercaptopropionate): 39.4 parts by mass • · Polyoxyethylene polyoxypropylene lauryl ether (WONDERSURF 140 manufactured by AOKI OIL INDUSTRIAL Co., Ltd.): 17.4 parts by mass • · 1-Decanethiol: 2.8 parts by mass • · RX-1 prepared by the method described in Patent Document 14: 3.8 parts by mass
Note that, in the curable composition, the photochromic compound was added in an amount of 0.106 mmol taking a total amount of the polymerizable monomers as 100 g.
The following additives were used: • · Dimethyltin dichloride: 0.05 parts by mass • · Irganox 245: 0.1 parts by mass • · 2-Ethylhexyl […]: 0.6 parts by mass
After the thus-prepared curable composition was thoroughly defoamed, it was poured into a glass mold with a gap of 1 mm and polymerized by casting polymerization. […] After the polymerization, the resulting cured product was removed from the glass mold to obtain a photochromic cured product with a thickness of 1 mm. The resulting photochromic cured product was evaluated in the same manner as for Example 23.
Photochromic cured products were produced using the photochromic compounds shown in Table 4 in the same manner as in Example 50.

SMILES | Color fading half-life at 23°C [1] [min] | Residual ratio [1] | Color developing density at 23°C [1] | Dissolution for 15 min [2] | Dissolution for 30 min [2] | Dissolution for 45 min [2] | Dissolution for 1 hour [2] | Residual ratio ([3]; A96/A0 x 100 after 96 hours accelerated degradation, xenon weather meter X25) | Color developing density at 23°C ([3]; absorbance difference after 240 seconds irradiation at the maximum absorption wavelength of the same line)
CCCC1(CC)c2cc(C)ccc2-c2c1c1c(c3cc(OC)c(-c4ccc(N5CCOCC5)cc4)cc23)OC(c2ccc(OC)cc2)(c2ccc(N3CCOCC3)cc2)C=C1 (stereo not shown) [Formula (79-2)] | 1.3 | – | – | 3 | 2 | 1 | 1 | – | –
CCCCC1(C(C)CC)c2ccccc2-c2c1c1c(c3cc(OC)c(N4CCOCC4)cc23)OC(c2ccc(OC)cc2)(c2ccc(OC)cc2)C=C1 (stereo not shown) [Formula (20-1)] | – | 48% and 44% | – | 3 | 2 | 1 | 1 | – | –
CCCC1(CC)c2cc(C)ccc2-c2c1c1c(c3cc(C)c(-c4ccc(OC)cc4)cc23)OC(c2ccc(OC)cc2)(c2ccc(N(c3ccccc3)c3ccccc3)cc2)C=C1 (stereo not shown) [Formula (12-2)] | – | – | – | – | – | – | – | 66% and 65% | 0.64 - and 1.23 -
CCCCC1(C)c2cc(N(C)c3ccccc3)ccc2-c2c1c1c(c3cc(OC)c(OC)cc23)OC(c2ccc(OC)cc2)(c2ccc(OCCC)cc2)C=C1 (stereo not shown) [Formula (73-2)] | – | 62% | – | 3 | 3 | 2 | 1 | – | –
CCC1(C)c2cc(OC)ccc2-c2c1c1c(c3cc(OC)c(Sc4c(C)cccc4C)cc23)OC(c2ccc(OC)cc2)(c2ccc(N3CCOCC3)cc2)C=C1 (stereo not shown) [Formula (74-2)] | 1.5 | 64% | – | 4 | 3 | 2 | 1 | – | –
CCCC1(CC)c2ccccc2-c2c1c1c(c3cc(OC)c(-c4c(OC)cc(OC)cc4OC)cc23)OC(c2ccc(OC)cc2)(c2ccc(N(c3ccccc3)c3ccccc3)cc2)C=C1 (stereo not shown) [Formula (78-2)] | – | 64% | – | 3 | 2 | 1 | 1 | – | –
CCCCC1(CC)c2cc(OC)ccc2-c2c1c1c(c3cc(OC)c(Sc4c(C)cccc4C)cc23)OC(c2ccc(OC)cc2)(c2ccc(N3CCOCC3)cc2)C=C1 (stereo not shown) [Formula (77-1)] | – | 67% | – | 3 | 3 | 1 | 1 | – | –

Continued, values first:

Color fading half-life at 23°C [1] [min] | Residual ratio [1] | Color developing density at 23°C [1] | Dissolution for 15 min [2] | Dissolution for 30 min [2] | Dissolution for 45 min [2] | Dissolution for 1 hour [2] | Residual ratio ([3]; A96/A0 x 100 after 96 hours accelerated degradation, xenon weather meter X25) | Color developing density at 23°C ([3]; absorbance difference after 240 seconds irradiation at the maximum absorption wavelength of the same line) | SMILES
1.17 | 79% | 1.09 - | 3 | 2 | 1 | 1 | – | – | CCCCC1(CC)c2ccccc2-c2c1c1c(c3cc(OC)c(N(C)c4ccccc4)cc23)OC(c2ccc(OC)cc2)(c2ccc(OC)cc2)C=C1 (stereo not shown) [Formula (80-2)]
– | 64% | – | 3 | 2 | 1 | 1 | – | – | CCCCCCC1(C)c2cc(OC(F)(F)F)ccc2-c2c1c1c(c3cc(OC)ccc23)OC(c2ccc(OC)cc2)(c2ccc(OC)cc2)C=C1 (stereo not shown) [Formula (90-1)]
2.65 | 64% | – | 3 | 2 | 1 | 1 | – | – | CCCOc1ccc(C2(c3ccc(OC)cc3)C=Cc3c4c(c5cc(OC)c(OC)cc5c3O2)-c2ccc(N(C)c3ccccc3)cc2C4(CC)CCC)cc1 (stereo not shown) [Formula (87-1)]
3.13 | 51% and 53% | 1.61 - and 0.89 - | 4 | 3 | 2 | 1 | – | – | COc1ccc(C2(c3ccc(OC)cc3)C=Cc3c4c(c5cc(N6CCOCC6)c(OC)cc5c3O2)-c2ccccc2C42CCCCCCC2)cc1 [Formula (D), reference compound]
1.25 | 57% | – | 4 | 3 | 1 | 1 | – | – | CCCC1(CC)c2cc(OC)ccc2-c2c1c1c(c3cc(OC)ccc23)OC(c2ccc(OC)cc2)(c2ccc(N3CCOCC3)cc2)C=C1 (stereo not shown) [Formula (91-1)]
